System: Mycobacterium tuberculosis H37Rv growth inhibition, no glycerol
Experiment: Confirmatory growth inhibition assay, Mycobacterium tuberculosis H37Rv, absence of glycerol (AID 449764);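 further: growth read after 7 days of incubation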
Settings: for IC90: measured here: IC90 growth inhibition

Compound	IC50 [µM]	IC90 [µM]
CCOc1cc(CNCCCN2CCOCC2)cc(Br)c1OCC(=O)Nc1cccc(C(F)(F)F)c1	23.3	32
O=C1C(SCCO)=C(SCCO)C(=O)c2ccccc21	11.3	12
O=C1C2C(C(=O)N1/N=C/c1ccc([N+](=O)[O-])o1)C1C=CC2C12CC2 (stereo unspecified)	32.3	52.8
O=C(Cn1ncc(Cl)c(Cl)c1=O)c1ccc2c(c1)OCCO2	10.4	15.7
CCOC(=O)CSCC(=O)N1CCC(Cc2ccccc2)CC1	9.38	16.2
CCCCNC(=S)Nc1ccc2cn[nH]c2c1	12	31.8
O=c1[nH]c(=O)n(C2CCCO2)cc1F (stereo unspecified)	57.1	> 100
O=C(Oc1c(Cl)cc(Cl)c2cccnc12)c1cccs1	1.28	1.38
Oc1c(C(c2ccccc2Cl)N2CCCC2)ccc2cccnc12 (stereo unspecified)	31.2	37.7
Cc1ccc(S(=O)(=O)N(C)c2ccc(OCC(=O)OCc3ccc(C#N)cc3)cc2)cc1	17.3	28.3
CC1=CC(=O)c2c(O)ccc(O)c2C1=O	5.64	7.87
CO/N=C(\Cn1ncc(N2CCCC2)c(Cl)c1=O)c1ccc(Cl)cc1	23.7	26.9
CC(=O)c1ccc(-n2cc(-c3ccc(C(C)(C)C)cc3)[n+]3c2SCCC3)cc1	20.3	26.9
CCC1=C(OC(=O)N(CC)CC)N2C(=O)OC(=NCCc3c[nH]c4ccccc34)[C@]2(Cc2ccccc2)[C@H]2C1=CC[C@H]1C(=O)NC(=O)[C@H]12	30.6	45.7
COc1ccc(-c2nnn(CC(=O)OC3CCCCC3)n2)cc1OC	20.6	> 100
Cn1nc(-c2ccc(N3CCCCC3)c(NC(=O)c3ccco3)c2)c2ccccc2c1=O	8.18	12.2
COc1ccc(-c2csc(NC(C)c3nc4cc(Cl)c(N5CCCCC5)cc4n3CCCO)n2)cc1 (stereo unspecified)	23	26.2
COc1ccc(Cc2nnc(SCC(=O)N(c3ccccc3)C(C)C)n(N)c2=O)cc1	68	97.5
COc1cccc(Nc2ccc([N+](=O)[O-])c3nonc23)c1	9.9	14.5
CN(C(=S)NC(=O)c1ccc(Cl)cc1)C1CCCCC1	9.46	14.7
O=C(c1cc(COc2ccc(F)cc2F)on1)N1CCCC(c2ccccc2)C1 (stereo unspecified)	53.8	> 100

Compound	IC50 [µM]	IC90 [µM]
CCN(CC)C(=O)[C@H]1CC(CC(=O)NCC23CC4CC(CC(C4)C2)C3)C(=O)N2CCc3c([nH]c4ccccc34)[C@]12C (stereo partly specified)	19.4	29.7
COc1ccc(/C=C/CN2CCC(CO)(Cc3ccccc3Cl)CC2)cc1	24.3	27.5
Cc1ccc(C(=O)CC(SCC(=O)O)c2ccc([N+](=O)[O-])cc2)cc1 (stereo unspecified)	10.8	12.1
O=C(NNc1nc(-c2ccccc2)cs1)c1ccccc1	40.2	> 100
CCc1cc2c(=O)c(-c3cnn(-c4ccccc4)c3)c(C)oc2c(CN2CCCCC2)c1O	32.4	52.4
CCOC(=O)CSc1nnc(-c2ccc(S(=O)(=O)NCc3cccs3)cc2)o1	5.1	7.29
Cc1cc(/C=N/n2cnnc2)c(C)n1-c1ccc(OCc2ccc(Cl)cc2Cl)cc1	17.6	21.5
C=CCNC(=S)N/N=C(\C)c1ccccn1	23.4	45.5
CN(CCCCCCCCCCN(C)C(=O)Oc1cccc([N+](C)(C)C)c1)C(=O)Oc1cccc([N+](C)(C)C)c1	2.17	3.44
O=C(C=C=Nc1ccccc1)C(=O)N=C=Cc1ccccc1	12.4	20.5
CCN(Cc1ccncc1)Cc1nc(-c2ccc(C(=O)OC)cc2)no1	34.2	53.6
CCN(CC)c1nc(NN)nc(Nc2ccc(C)c(Cl)c2)n1	5.84	6.79
O=C(NCCC1=CCCCC1)c1c(O)nc2sccn2c1=O	66	> 100
O=C(N/N=C/c1cccc2cccnc12)[C@H]1C[C@@H]1c1ccccc1	38.2	56
Cc1ccc(OC(=O)c2oc3ccc(F)cc3c2C)c(C)c1	12	13.9
Cc1ccc(OC/C(O)=C(\C#N)c2nc3ccccc3s2)cc1	25.7	41.1
O=[N+]([O-])c1cc(-c2ncccn2)c([N+](=O)[O-])s1	33.1	38.8
CCC(C)Nc1ccc(NC(C)CC)cc1 (stereo unspecified)	2.31	2.97
CC(C)OC(=O)c1ccc(COC(=O)c2cnccn2)cc1	18	> 100
COc1ccc(COC(=O)CCNC(=O)c2ccc(Cl)cc2)cc1	71.1	> 100
COCC(=O)O[C@]1(CCN(C)CCCc2nc3ccccc3[nH]2)CCc2cc(F)ccc2[C@@H]1C(C)C	45.4	53.2

Compound	IC50 [µM]	IC90 [µM]
O=C(Nc1nnc(-c2ccccc2)o1)c1cc(-c2cccs2)nc2ccccc12	1.76	2.94
CCCC(/C=C/c1ccc(OC(C)=O)cc1)=C1/c2ccccc2C(=O)N1c1ccccc1	13.2	20.9
COC(=O)C1=C(C)N(Cc2ccccc2)C(=NCc2cccc(Cl)c2)N[C@H]1c1ccccc1	20.4	26.6
COc1ccc(C2=NC(=O)/C(=C\c3cc(OC)c(OC)c(OC)c3)O2)cc1	11.1	16.2
CCOC(=O)C(C)Oc1ccc(OCc2ccccc2)cc1 (stereo unspecified)	9.95	14.6
N#Cc1ccc(OCC(O)CN2CCN(c3ncc(C(F)(F)F)cc3Cl)CC2)cc1 (stereo unspecified)	15.4	24.3
O=C(c1ccc(Cl)cc1)N1N=C(c2ccccn2)CC1(O)C(F)(F)F (stereo unspecified)	25.7	> 100
CCOc1ccc(Nc2cc(C)nc(-n3nc(C)cc3C)n2)cc1	2.27	4.89
N#CC(C#N)=c1ccc2c(c1)N1C3=C(CCCC3)CC3CCCCC31N=2 (stereo unspecified)	12.5	13.5
Cc1ccc(-c2c[n+](CC(=O)N3c4ccccc4Sc4ccccc43)c3n2CCC3)cc1	22.9	26.1
C1=C(c2c[nH]c3ccccc23)CCNC1	56.5	73.9
c1ccc(C[C@H]2CN=C(Nc3ccccc3)N2CCCC2CCCC2)cc1	33.1	44.5
Cc1ccc(C)c(N/C(N)=N/c2nc(C)cc(C)n2)c1	7.67	12.7
OC(CN1CCN(c2ccccn2)CC1)Cn1c2ccccc2c2ccccc21 (stereo unspecified)	42	55.1
CCCCCCC[N+](CC)(CC)CCCCc1ccc(Cl)cc1	37.1	49.8
O=C1C(=O)c2ccccc2-c2ccccc21	7.83	10.6
CCOC(=O)N1CCN(c2nc(N(c3ccccc3)c3ccccc3)nc(-n3ccnc3)n2)CC1	98.2	> 100
C/C(=N\NC(=S)NCC(C)(C)C)c1cc(F)cc(F)c1O	9.33	37.1
CCOC(=O)c1nn(-c2ccc(C)c(C)c2)cc1O	99.8	> 100
CC1(C)CC(NC(=O)c2ccc(Cl)c(S(=O)(=O)N(Cc3ccccc3)c3ccccc3)c2)CC(C)(C)N1	28.3	43.4
C=CCc1c(C)nc(C)nc1N/N=C/c1ccccc1O	4.61	8.85
